Assay results taken from publication PMC9034499, “RORγt agonist enhances anti-PD-1 therapy by promoting monocyte-derived dendritic cells through CXCL10 in cancers” (Journal of Experimental & Clinical Cancer Research : CR, 2022).

Experiments:
[1] = Drug toxicity evaluation by histopathology (H&E staining); type: in vivo, mice; details: 50 mg/kg or 100 mg/kg i.p. daily for two weeks
Method: We further explored the in vivo efficacy of 8-074. First, we conducted a drug toxicity evaluation by histopathology using H&E staining. […] Given the in vivo toxicity and body weight loss during dose escalation, we determined 50 mg/kg for use in the in vivo mechanistic study. The anti-tumor effect of 8-074 was also tested in two other murine syngeneic tumor models (B16F10 and MC38, which are models of melanoma and colon adenocarcinoma, respectively).
Supplementary file 13046_2022_2289_MOESM3_ESM.pdf: Additional file 3: Fig. S3. Selectivity and safety analysis of 8-074. (a) Representative hematoxylin and eosin (H&E) staining micrograph (200 ×) of heart, liver, lung, kidney, spleen, and intestine sections from mice receiving vehicle, 50 mg/kg, or 100 mg/kg 8-074 for two weeks. Scale bar = 100 μm. Vehicle, daily administration of 50 μL DMSO by intraperitoneal injection; 50 mg/kg and 100 mg/kg, daily administration of the corresponding dose (volume less than or equal to 50 μL) by intraperitoneal injection. The cell morphology, number, and distribution in heart, liver, lung, kidney, spleen, and intestine tissues after 8-074 injection were not different from those in the vehicle group. (b and c) Effects of 8-074 on body weight in mice. Data represents the mean ± SD from biological quadruplicates. All error bars represent mean ± SD. Data are from three independent experiments.

[2] = tested on: Th1 cells; test: Th1 specificity, IFN-γ by flow cytometry; type: cell-based, C57BL/6 wild-type mice; details: compared with vehicle alone
Description: (§1) To confirm the in vitro specificity of 8-074, splenocytes from C57BL/6 wild-type mice were activated by plate-bound anti-CD3 and anti-CD28 antibodies and polarized with anti-IL-4 and IL-12 to obtain Th1 cells. IFN-γ, a signature cytokine of Th1 cells, was not affected by LYC-55716 or 8-074 compared with vehicle alone (Fig. 2j, Fig. S2g).

[3] = tested on: macrophages; test: Macrophage markers by qPCR; type: cell-based; details: compared with vehicle
Method: (§2) The intracellular cytokines by TILs or in vitro differentiated T helper cells were quantified after restimulation with PMA plus ionomycin in the presence of GolgiStop for 6 h. The total RNA was isolated using the improved TRizol-based (Sigma, Darmstadt, Germany) method for qPCR analysis, and the mRNA expression was analyzed using a StepOnePlus (Life Technologies, Carlsbad, USA) real-time PCR instrument using housekeeping gene β-actin and Gapdh internal standards. qPCR was performed using A Power SYBR Green PCR Master Mix (Accurate Biology, Hunan, China) and two-cycle amplification for 40 cycles followed by the melting curve. The sequence of primers is listed in the Additional file 6: Table S1. In addition, the cytokines were quantified in cell-free culture supernatants using enzymelinked immunosorbent assay (ELISA) kit (the optical density (OD) value was measured at 450 nm, using 570 nm or 630 nm as the reference wavelengths, Multisciences, Hangzhou, China). The kit was used according to the manufacturer’s instructions.
as §1

[4] = tested on: B cells; test: B cell activation markers by qPCR; type: cell-based; details: compared with the vehicle
Method: as §2, §1

[5] = tested on: Th17 cells (CD4+ T cells); test: Murine Th17 differentiation, flow cytometry; type: cell-based, mouse; details: Th17, intracellular staining, same concentration
Method: CD4^+ CD25^−CD62L^high cells were purified from C57BL/6 splenocytes using an EasySep Mouse Naïve CD4^+ T cell isolation kit from STEMCELL Technologies (Vancouver, Canada), and they were differentiated into Th17 cells (TGF-β, 2 ng/ml; IL-6, 20 ng/ml; Anti-IFN-γ, 10 μg/ml; Anti-IL-4, 10 μg/ml, BioLegend, San Diego, CA) in the presence of plate-bound anti-CD3 (5 μg/ml, BioLegend, San Diego, CA) and anti-CD28 (2 μg/ml, BioLegend, San Diego, CA). The cells were harvested and processed for cytokine analysis at the RNA or protein level using real-time qPCR, flow cytometry, and ELISA on day five. Alternatively, splenocytes from OT-I mice were activated using OVA-derived peptides SIINFEKL (50 ng/ml, Sangon Biotech, Shanghai, China) and polarized to Tc17 cells using cytokine TGF-β (2 ng/ml, BioLegend, San Diego, CA) and IL-6 (20 ng/ml, BioLegend, San Diego, CA) for four or five days.
Cells were stained with fluorochrome-labeled anti-mouse Ab such as CD45, CD3, CD4, CD8, Foxp3, IFN-γ, IL-17A, CD11b, CD11c, pAKT, pSTAT3, CCR6, or MHCII. […] Cells were acquired using the FACS Aria II machine and analyzed using FlowJo software.

In the case of `CCS(=O)(=O)c1ccc(CC(=O)Nc2ccc(-c3ccc(CC(C)C)c(C#N)c3)c(C(F)(F)F)c2)cc1` [8-074], the “histopathology, H&E staining of organs” value [1] is reported as “No noteworthy necrosis or other abnormality was observed”, the “IFN-γ, signature cytokine of Th1 cells” value [2] is reported as “not affected” and the “gene expression of macrophage markers Arg1, Il-1β, Il-6, and Il-10” value [3] is reported as “no significant change”. For the same compound, the “gene expression of activated B cell markers Cd19 and Cd86” value [4] was “no significant change” and the “percentage of CD4+ T cells that express IL-17A” value [5] was 24.0%.
